Measurements published in paper PMC7402526, “An in vitro quantitative systems pharmacology approach for deconvolving mechanisms of drug-induced, multilineage cytopenias” (PLoS Computational Biology, 2020).
Entries after “also recorded” stand apart in the source; their conditions may differ.

Assays:
[1] = system: early erythroid cells (Eryth I); assay: MLTA, ErythI: concentration-response and QSP model fit; type: cell-based, human; details: Homo sapiens, 144 h
In short: (§1)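 Drug was added at time 0 to thawed human bone marrow CD34+ cells in SFEM II plus a cytokine cocktail. After 6 days at 37°C, subsets were counted by surface-marker flow with TruCount beads. Vehicle-normalized, donor-pooled data then fed an Emax model separating anti-proliferative from cell-killing effects.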

[2] = system: granulocyte progenitor (Gran-lin prog); assay: MLTA, GranP: concentration-response and QSP model fit; type: cell-based, human; details: Homo sapiens, 144 h
In short: as §1

[3] = system: total viable cells (totalViableCells); assay: MLTA, total live cells concentration-response; type: cell-based; details: Homo sapiens, 144 h, 6 days, normalized to vehicle control, read-out: total_live normalized cell count
In short: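 Freeze-thawed primary human bone marrow CD34+ cells in SFEM II with cytokine cocktail, drug added day 0, 6 days at 37°C, 5% CO2. Live/dead counts by 17-parameter flow cytometry with DAPI exclusion, bead-normalized, volume-corrected to cells/mL. Normalized per donor to mean of six vehicle wells; 2–7 donors pooled.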

[4] = system: neutrophils (neutrophil-lin); assay: MLTA, Neut: concentration-response and QSP model fit; type: cell-based, human; details: Homo sapiens, Neutrophil, 144 h
In short: (§2)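 Parameters come from fitting an Emax-based QSP model, with L1 regularization and Emax ranging 0–2, to vehicle-normalized, bead-corrected flow cytometry counts. Counts came from human bone marrow CD34+ cells treated from day 0 through a 6-day multi-lineage cytokine culture in SFEM II, using 2–7 donors per drug.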

[5] = system: late erythroid cells (Eryth II); assay: MLTA, ErythII: concentration-response and QSP model fit; type: cell-based, human; details: Homo sapiens, 144 h
In short: as §2

[6] = system: monocyte progenitors (monocyte prog); assay: MLTA, MonoP: concentration-response and QSP model fit; type: cell-based, human; details: Homo sapiens, Monocyte, 144 h
In short: as §1

[7] = system: human bone marrow-derived CD34+ cells differentiated into multiple hematopoietic lineages; assay: MLTA, overall effects across hematopoietic lineages; type: cell-based
Experimental: A custom optimized cytokine cocktail was developed using commercially available cytokines (Peprotech, New Jersey) to facilitate simultaneous multi-lineage differentiation and self-renewal of freeze-thawed primary human bone marrow-derived CD34+ cells in SFEM II media (cells and media from StemCell Technologies, Vancouver). Cultures were carried out in ultra-low attachment 96-well plates (Corning, New York) with test article added on day 0 and cultured at 37°C, 85% relative humidity, and 5% CO2 for six days before interrogating drug impact via 17-parameter flow cytometry.
The flow cytometry panel used to define hematopoietic subsets was composed of CD34-PECy7, CD90-PECY5, CD38-AF488, CD371-PE, CD45Ra-BV421, CD14-BV605, CD42b-AF647, CD10-PEDazzle594, CD235a-PerCPCy5.5 (BioLegend, California), CD15-BUV395, CD41a-APCH7, CD71-BV786 (BD Biosciences, California), and DAPI for dead cell exclusion (ThermoFisher, California). In short, Day 6 cells were harvested, FcR-blocked (FcR binding inhibitor, ThermoFisher), surface-stained, then analyzed in a buffer containing TruCount Control Beads using a BD LSR Fortessa SORP fitted with a high-throughput sampler (BD Biosciences, California). Data was analyzed in Diva 6.0.2 and exported to CSV where after all cell data was transformed to cell per mL then normalized on a per-donor basis to untreated control wells to determine drug impact.
Donor material was collected and cultured as described above. The number of replicate donor samples per drug ranged from 2–7 and varied per drug (S1 Table). Drug treatment was added at time 0 and cells were maintained in culture for 6 days. Concentrations tested for each drug compound are contained in S1 Table. Concentrations were selected to span a range that is clinically useful. Following treatment, cell populations were measured using flow cytometry. We extracted cell counts from flow cytometry data, normalized to bead counts, and corrected for well volume.
Each well was normalized to the average of six vehicle control wells. For drugs that were tested across multiple runs of the assay, vehicle-normalized donor data were pooled, and we used the average of these pooled data for further modeling. Normalized data used as model inputs are included in S1 Table.
We implemented drug effects using an Emax model for the drug’s effect on each cell type. The 13 maximum effect parameters (EmaxT,C) are unitless and can vary between 0 and 2 and where a subscript, C, represents one of the previously described 13 cell types. We adapted a traditional Emax model using the equations below. We interpreted EmaxT values less than or equal to one as anti-proliferative, and EmaxT values greater than one as indicating a cell-killing mechanism in addition to anti-proliferation. The relationships for these effects are included in the model using the following equations. Eq 2 describes the drug anti-proliferative effect in the net proliferation rate for a given cell type. Eq 3 describes the cell-killing EmaxCK effect.

[8] = system: MK cells (MK-lin); assay: MLTA, MK: concentration-response and QSP model fit; type: cell-based, human; details: Homo sapiens, 144 h
In short: as §2

## O=C1CCC(N2C(=O)c3ccccc3C2=O)C(=O)N1 (stereo not drawn) [thalidomide]
[1]; dose 0.2 nM, 6 days, normalized to vehicle control, read-out: ErythI normalized cell count
  activity at 0.0002 µM: 101%
[1]; dose 1 nM, 6 days, normalized to vehicle control, read-out: ErythI normalized cell count
  activity at 0.001 µM: 120%
[1]; dose 5 nM, 6 days, normalized to vehicle control, read-out: ErythI normalized cell count
  activity at 0.005 µM: 124%
[1]; dose 25 nM, 6 days, normalized to vehicle control, read-out: ErythI normalized cell count
  activity at 0.025 µM: 122%
[1]; dose 100 nM, 6 days, normalized to vehicle control, read-out: ErythI normalized cell count
  activity at 0.1 µM: 137%
[1]; dose 500 nM, 6 days, normalized to vehicle control, read-out: ErythI normalized cell count
  activity at 0.5 µM: 114%
[1]; dose 2500 nM, 6 days, normalized to vehicle control, read-out: ErythI normalized cell count
  activity at 2.5 µM: 136%
[1]; parameter from QSP model fitting, read-out: Emax_drug_ErythroidI
  Emax: 0.00343%
[2]; dose 0.2 nM, 6 days, normalized to vehicle control, read-out: GranPs normalized cell count
  activity at 0.0002 µM: 80.9%
[2]; dose 1 nM, 6 days, normalized to vehicle control, read-out: GranPs normalized cell count
  activity at 0.001 µM: 97.2%
[2]; dose 5 nM, 6 days, normalized to vehicle control, read-out: GranPs normalized cell count
  activity at 0.005 µM: 114%
[2]; dose 25 nM, 6 days, normalized to vehicle control, read-out: GranPs normalized cell count
  activity at 0.025 µM: 130%
[2]; dose 100 nM, 6 days, normalized to vehicle control, read-out: GranPs normalized cell count
  activity at 0.1 µM: 99%
[2]; dose 500 nM, 6 days, normalized to vehicle control, read-out: GranPs normalized cell count
  activity at 0.5 µM: 94.5%
[2]; dose 2500 nM, 6 days, normalized to vehicle control, read-out: GranPs normalized cell count
  activity at 2.5 µM: 109%
[2]; parameter from QSP model fitting, read-out: Emax_drug_GranP
  Emax: 0.0121%
[3]; dose 0.2 nM
  viability at 0.0002 µM: 90.8%
[3]; dose 1 nM
  viability at 0.001 µM: 99.8%
[3]; dose 5 nM
  viability at 0.005 µM: 108%
[3]; dose 25 nM
  viability at 0.025 µM: 116%
[3]; dose 100 nM
  viability at 0.1 µM: 93.1%
[3]; dose 500 nM
  viability at 0.5 µM: 91.7%
[3]; dose 2500 nM
  viability at 2.5 µM: 104%
[4]; dose 0.2 nM, 6 days, normalized to vehicle control, read-out: Neut normalized cell count
  activity at 0.0002 µM: 99.5%
[4]; dose 1 nM, 6 days, normalized to vehicle control, read-out: Neut normalized cell count
  activity at 0.001 µM: 79.1%
[4]; dose 5 nM, 6 days, normalized to vehicle control, read-out: Neut normalized cell count
  activity at 0.005 µM: 88.2%
[4]; dose 25 nM, 6 days, normalized to vehicle control, read-out: Neut normalized cell count
  activity at 0.025 µM: 94.5%
[4]; dose 100 nM, 6 days, normalized to vehicle control, read-out: Neut normalized cell count
  activity at 0.1 µM: 62.4%
[4]; dose 500 nM, 6 days, normalized to vehicle control, read-out: Neut normalized cell count
  activity at 0.5 µM: 69%
[4]; dose 2500 nM, 6 days, normalized to vehicle control, read-out: Neut normalized cell count
  activity at 2.5 µM: 96.9%
[4]; parameter from QSP model fitting, read-out: Emax_drug_Neut
  Emax: 1.13%
[5]; dose 0.2 nM, 6 days, normalized to vehicle control, read-out: ErythII normalized cell count
  activity at 0.0002 µM: 94.3%
[5]; dose 1 nM, 6 days, normalized to vehicle control, read-out: ErythII normalized cell count
  activity at 0.001 µM: 99.8%
[5]; dose 5 nM, 6 days, normalized to vehicle control, read-out: ErythII normalized cell count
  activity at 0.005 µM: 105%
[5]; dose 25 nM, 6 days, normalized to vehicle control, read-out: ErythII normalized cell count
  activity at 0.025 µM: 111%
[5]; dose 100 nM, 6 days, normalized to vehicle control, read-out: ErythII normalized cell count
  activity at 0.1 µM: 77.8%
[5]; dose 500 nM, 6 days, normalized to vehicle control, read-out: ErythII normalized cell count
  activity at 0.5 µM: 87.5%
[5]; dose 2500 nM, 6 days, normalized to vehicle control, read-out: ErythII normalized cell count
  activity at 2.5 µM: 93.7%
[5]; parameter from QSP model fitting, read-out: Emax_drug_ErythroidII
  Emax: 0.00351%
[6]; dose 0.2 nM, 6 days, normalized to vehicle control, read-out: MonoPs normalized cell count
  activity at 0.0002 µM: 90.1%
[6]; dose 1 nM, 6 days, normalized to vehicle control, read-out: MonoPs normalized cell count
  activity at 0.001 µM: 93.5%
[6]; dose 5 nM, 6 days, normalized to vehicle control, read-out: MonoPs normalized cell count
  activity at 0.005 µM: 98.4%
[6]; dose 25 nM, 6 days, normalized to vehicle control, read-out: MonoPs normalized cell count
  activity at 0.025 µM: 120%
[6]; dose 100 nM, 6 days, normalized to vehicle control, read-out: MonoPs normalized cell count
  activity at 0.1 µM: 92%
[6]; dose 500 nM, 6 days, normalized to vehicle control, read-out: MonoPs normalized cell count
  activity at 0.5 µM: 82.7%
[6]; dose 2500 nM, 6 days, normalized to vehicle control, read-out: MonoPs normalized cell count
  activity at 2.5 µM: 104%
[6]; parameter from QSP model fitting, read-out: Emax_drug_MonoP
  Emax: 0.00494%
[7]; 0.2-2500 nM, 6 days, relative to vehicle control
  effect on hematopoietic cell numbers across cell types: least effect on hematopoietic cell types across doses; also recorded: did not drastically decrease cell types
[7]; QSP model fit, EmaxT > 1.0 = cell-killing
  EmaxT effects across cell types (overall statement): ≤ 0.1
[8]; dose 0.2 nM, 6 days, normalized to vehicle control, read-out: MK normalized cell count
  activity at 0.0002 µM: 97.8%
[8]; dose 1 nM, 6 days, normalized to vehicle control, read-out: MK normalized cell count
  activity at 0.001 µM: 103%
[8]; dose 5 nM, 6 days, normalized to vehicle control, read-out: MK normalized cell count
  activity at 0.005 µM: 118%
[8]; dose 25 nM, 6 days, normalized to vehicle control, read-out: MK normalized cell count
  activity at 0.025 µM: 114%
[8]; dose 100 nM, 6 days, normalized to vehicle control, read-out: MK normalized cell count
  activity at 0.1 µM: 101%
[8]; dose 500 nM, 6 days, normalized to vehicle control, read-out: MK normalized cell count
  activity at 0.5 µM: 88.1%
[8]; dose 2500 nM, 6 days, normalized to vehicle control, read-out: MK normalized cell count
  activity at 2.5 µM: 105%
[8]; parameter from QSP model fitting, read-out: Emax_drug_MK
  Emax: 0.00388%
